Measured values from patent publication US11027029B2, “Peptide thiourea derivative, radioisotope labeled compound containing same, and pharmaceutical composition containing same as active ingredient for treating or diagnosing prostate cancer” (CELLBION CO., LTD, priority 2015, dated 2021).

Target: T1, PSMA positive 22Rv1 cells (Homo sapiens, UniProt Q04609)
T1 construct: endogenous in cells; host or cells: 22Rv1 prostate cancer cells
Test: In vitro competitive inhibition cell binding test against I-125-MIP-1072
Settings: 1.85 kBq I-125-MIP-1072, 1 hour, nonlinear regression analysis, read-out: IC50 (inhibition of binding between 22Rv1 cells and I-125-MIP-1072)
Method: To perform in vitro competitive inhibition cell binding test of Ga-NOTA-SCN-GUL, the following experiment was conducted.
The PSMA positive prostate cancer cell line 22Rv1 was loaded in a 24-well plate at the density of 2×10^5 cells/well, followed by culture in a 37[…] 5% CO2 incubator for 24 hours. Ga-NOTA-SCN-GUL prepared in Example 2 was diluted 2-fold serially with the cell culture medium containing 0.5% bovine serum albumin. The diluted sample was added to the cultured cells (0.5 mL/well), to which 1.85 kBq (S)-2-(3-((S)-1-carboxy-5-((4-iodobenzyl)amino)pentyl)ureido)pentanedioic acid (I-125-MIP-1072) was added (0.5 mL/well). After well mixed, the mixture was cultured in a 37[…] 5% CO2 incubator for 1 hour. The culture medium was discarded, and the cells were washed with fresh medium twice, to which 0.5% sodium dodecyl sulfate (SDS) dissolved in PBS was added (1 mL/well). The mixture was gently shaken for complete dissolving, and then loaded in a 5 mL disposable plastic test tube. Then, the radioactivity was measured with a gamma counter.

T1 sequence (Q04609 whole entry): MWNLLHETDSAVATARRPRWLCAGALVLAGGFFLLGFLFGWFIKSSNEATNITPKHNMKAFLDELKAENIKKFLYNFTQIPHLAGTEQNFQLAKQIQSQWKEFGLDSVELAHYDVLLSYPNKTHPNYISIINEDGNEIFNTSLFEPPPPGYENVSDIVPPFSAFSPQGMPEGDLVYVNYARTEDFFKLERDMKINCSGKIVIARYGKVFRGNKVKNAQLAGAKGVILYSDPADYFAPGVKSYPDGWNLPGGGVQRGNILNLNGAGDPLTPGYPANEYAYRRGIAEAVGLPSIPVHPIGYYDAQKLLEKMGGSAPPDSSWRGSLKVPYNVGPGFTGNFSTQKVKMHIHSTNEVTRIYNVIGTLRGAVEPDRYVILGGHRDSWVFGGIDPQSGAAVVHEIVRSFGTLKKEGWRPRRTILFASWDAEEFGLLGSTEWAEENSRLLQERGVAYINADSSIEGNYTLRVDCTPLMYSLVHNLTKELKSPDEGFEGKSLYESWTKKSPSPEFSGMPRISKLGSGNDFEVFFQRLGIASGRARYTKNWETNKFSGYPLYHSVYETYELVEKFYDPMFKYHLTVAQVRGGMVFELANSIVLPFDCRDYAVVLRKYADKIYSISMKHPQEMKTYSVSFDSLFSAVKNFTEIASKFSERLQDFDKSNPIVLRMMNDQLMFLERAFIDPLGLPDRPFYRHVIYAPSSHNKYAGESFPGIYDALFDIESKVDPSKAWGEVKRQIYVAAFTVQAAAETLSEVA

Question: `O=C(O)CCC(NC(=O)NC(CCCCNC(=S)Nc1ccc(CC2CN3CCN4CCN2CC(=O)[O][Ga]([O]C(=O)C4)[O]C(=O)C3)cc1)C(=O)O)C(=O)O` (stereo not shown) [Example 2] was tested. Which IC50 did it give?
Answer: Its IC50 is 0.0183 µM.
